In patent publication US12077503B2, “Substituted cyclic amides and their use as herbicides” (FMC CORPORATION, priority 2015, dated 2024):

Key:
Assay type in all cases: in vivo
[1] = tested on: ragweed (common ragweed, Ambrosia elatior); experiment: Test A postemergence
Procedure, shortened: (§1)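 Seeds sprayed preemergence with a directed soil spray, or plants at 2 to 10 cm height and one- to two-leaf stage sprayed postemergence, with test chemicals in a non-phytotoxic solvent mixture containing surfactant, in loam soil–sand blend. Injury rated visually against untreated controls after about 10 d in greenhouse, 0 (no effect) to 100 (complete control).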

[2] = tested on: pigweed (Amaranthus retroflexus); experiment: Test A postemergence
Procedure, shortened: as §1

[3] = tested on: giant foxtail (Setaria faberii); experiment: Test A postemergence
Procedure, shortened: as §1

[4] = tested on: wheat (Triticum aestivum); experiment: Test A postemergence
Procedure, shortened: as §1

[5] = tested on: ryegrass, Italian (Italian ryegrass, Lolium multiflorum); experiment: Test A postemergence
Procedure, shortened: as §1

[6] = tested on: Galium (catchweed bedstraw, Galium aparine); experiment: Test A postemergence
Procedure, shortened: as §1

[7] = tested on: barnyardgrass (Echinochloa crus-galli); experiment: Test A postemergence
Procedure, shortened: as §1

[8] = tested on: blackgrass (Alopecurus myosuroides); experiment: Test A postemergence
Procedure, shortened: as §1

corn (Zea mays) = experiment: Test A postemergence
Procedure, shortened: as §1

Kochia (Kochia scoparia) [9] = experiment: Test A postemergence
Procedure, shortened: as §1

[10] = tested on: ragweed (common ragweed, Ambrosia elatior); experiment: Test A preemergence; conditions: for Plant response rating, Ragweed: 125 g ai/ha
Procedure, shortened: as §1

[11] = tested on: pigweed (Amaranthus retroflexus); experiment: Test A preemergence; conditions: for Plant response rating, Pigweed: 125 g ai/ha; for Pigweed plant response rating (0 to 100 scale, 0 is no effect, 100 is complete control): 500 g ai/ha, visual injury approx. 10 d
[12] = tested on: giant foxtail (Setaria faberii); experiment: Test A preemergence; conditions: for Plant response rating, Foxtail, Giant: 125 g ai/ha; for Foxtail, Giant plant response rating (0 to 100 scale, 0 is no effect, 100 is complete control): 500 g ai/ha, visual injury approx. 10 d
Procedure, shortened: as §1

[13] = tested on: ryegrass, Italian (Italian ryegrass, Lolium multiflorum); experiment: Test A preemergence; conditions: for Plant response rating, Ryegrass, Italian: 125 g ai/ha; for Ryegrass, Italian plant response rating (0 to 100 scale, 0 is no effect, 100 is complete control): 500 g ai/ha, visual injury approx. 10 d
Procedure, shortened: as §1

[14] = tested on: barnyardgrass (Echinochloa crus-galli); experiment: Test A preemergence; conditions: for Plant response rating, Barnyardgrass: 125 g ai/ha; for Barnyardgrass plant response rating (0 to 100 scale, 0 is no effect, 100 is complete control): 500 g ai/ha, visual injury approx. 10 d
Procedure, shortened: as §1

Kochia (Kochia scoparia) [15] = experiment: Test A preemergence; conditions: for Plant response rating, Kochia: 125 g ai/ha; for Kochia plant response rating (0 to 100 scale, 0 is no effect, 100 is complete control): 500 g ai/ha, visual injury approx. 10 d
Procedure, shortened: as §1

[16] = tested on: sedge, umbrella (small-flower umbrella sedge, Cyperus difformis); experiment: Test B flooded paddy test; conditions: Flood, 0 to 100 scale where 0 is no effect and 100 is complete control, 13 to 15 d
Procedure, shortened: (§2)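 Greenhouse paddy pots with 2-leaf stage plants received compound by direct addition to floodwater 3 cm deep, kept at that level. Scored visually at 13–15 d versus controls (0 no effect; 100 complete control).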

rice (Oryra sativa) = experiment: Test B flooded paddy test; conditions: Flood, 0 to 100 scale where 0 is no effect and 100 is complete control, 13 to 15 d
Procedure, shortened: as §2

[17] = tested on: barnyardgrass (Echinochloa crus-galli); experiment: Test B flooded paddy test; conditions: Flood, 0 to 100 scale where 0 is no effect and 100 is complete control, 13 to 15 d
Procedure, shortened: as §2

[18] = tested on: ducksalad (Heteranthera limosa); experiment: Test B flooded paddy test; conditions: Flood, 0 to 100 scale where 0 is no effect and 100 is complete control, 13 to 15 d
Procedure, shortened: as §2

[19] = 125 g ai/ha, postemergence, visual injury rating on 0 to 100 scale (0 no effect, 100 complete control), approx. 10 d
[20] = 500 g ai/ha, postemergence, 0 to 100 scale, 0 no effect, 100 complete control
[21] = preemergence, 0 to 100 scale (0 no effect, 100 complete control)
[22] = 125 g ai/ha, postemergence, visual rating after approx. 10 d, 0 to 100 scale (0 no effect, 100 complete control)
[23] = Postemergence, 500 g ai/ha, 0 to 100 scale where 0 is no effect and 100 is complete control
[24] = Preemergence, visual injury after approximately 10 d, 0 to 100 scale where 0 is no effect and 100 is complete control

O=C1NCC(c2ccc(F)c(F)c2)C1C(=O)Nc1ccc(Cl)cc1F (centres unmarked) [Compound 410]
Ragweed plant response rating [1, 19]: 0 | Plant response rating, Ragweed [1, 20]: 0 | Pigweed plant response rating [2, 19]: 0 | Plant response rating, Pigweed [2, 20]: 20 | Foxtail, Giant plant response rating [3, 19]: 0 | Plant response rating, Foxtail, Giant [3, 20]: 40 | Wheat plant response rating [4, 19]: 0 | Plant response rating, Wheat [4, 20]: 0 | Ryegrass, Italian plant response rating [5, 19]: 0 | Plant response rating, Ryegrass, Italian [5, 20]: 0 | Galium plant response rating [6, 19]: 0 | Plant response rating, Galium [6, 20]: 0 | Barnyardgrass plant response rating [7, 19]: 20 | Plant response rating, Barnyardgrass [7, 20]: 50 | Blackgrass plant response rating [8, 19]: 0 | Plant response rating, Blackgrass [8, 20]: 20 | Corn plant response rating (corn (Zea mays); [19]): 0 | Plant response rating, Corn (corn (Zea mays); [20]): 0 | Kochia plant response rating (Kochia (Kochia scoparia) [9]; [19]): 0 | Plant response rating, Kochia (Kochia (Kochia scoparia) [9]; [20]): 0 | Plant response rating, Ragweed [10, 21]: 0 | Ragweed plant response rating (0 to 100 scale, 0 is no effect, 100 is complete control) ([10]; Preemergence, 500 g ai/ha, visual injury approx. 10 d): 0 | Plant response rating, Pigweed [11, 21]: 0 | Pigweed plant response rating (0 to 100 scale, 0 is no effect, 100 is complete control) ([11]; Preemergence): 20 | Plant response rating, Foxtail, Giant [12, 21]: 70 | Foxtail, Giant plant response rating (0 to 100 scale, 0 is no effect, 100 is complete control) ([12]; Preemergence): 80 | Plant response rating, Ryegrass, Italian [13, 21]: 0 | Ryegrass, Italian plant response rating (0 to 100 scale, 0 is no effect, 100 is complete control) ([13]; Preemergence): 0 | Plant response rating, Barnyardgrass [14, 21]: 50 | Barnyardgrass plant response rating (0 to 100 scale, 0 is no effect, 100 is complete control) ([14]; Preemergence): 60 | Plant response rating, Kochia (Kochia (Kochia scoparia) [15]; [21]): 0 | Kochia plant response rating (0 to 100 scale, 0 is no effect, 100 is complete control) (Kochia (Kochia scoparia) [15]; Preemergence): 0 | Plant response rating, Sedge, Umbrella ([16]; 500 g ai/ha): 0 | Plant response rating, Rice (rice (Oryra sativa); 500 g ai/ha): 0 | Plant response rating, Barnyardgrass ([17]; 500 g ai/ha): 0 | Plant response rating, Ducksalad ([18]; 500 g ai/ha): 30

CC(C)Oc1cccc(C2CNC(=O)C2C(=O)Nc2cccc(F)c2F)c1 (centres unmarked) [Compound 553]
Plant response rating, Ragweed [1, 22]: 30 | Plant response rating, Ragweed [1, 23]: 40 | Plant response rating, Pigweed [2, 22]: 20 | Plant response rating, Pigweed [2, 23]: 30 | Plant response rating, Foxtail, Giant [3, 22]: 70 | Plant response rating, Foxtail, Giant [3, 23]: 90 | Plant response rating, Wheat [4, 22]: 40 | Plant response rating, Wheat [4, 23]: 60 | Plant response rating, Ryegrass, Italian [5, 22]: 60 | Plant response rating, Ryegrass, Italian [5, 23]: 70 | Plant response rating, Galium [6, 22]: 60 | Plant response rating, Galium [6, 23]: 60 | Plant response rating, Barnyardgrass [7, 22]: 90 | Plant response rating, Barnyardgrass [7, 23]: 90 | Plant response rating, Blackgrass [8, 22]: 50 | Plant response rating, Blackgrass [8, 23]: 60 | Plant response rating, Corn (corn (Zea mays); [22]): 80 | Plant response rating, Corn (corn (Zea mays); [23]): 90 | Plant response rating, Kochia (Kochia (Kochia scoparia) [9]; [22]): 30 | Plant response rating, Kochia (Kochia (Kochia scoparia) [9]; [23]): 50 | Plant response rating, Ragweed [10, 24]: 40 | Plant response rating, Pigweed [11, 24]: 30 | Pigweed plant response rating (0 to 100 scale, 0 is no effect, 100 is complete control) ([11]; Preemergence): 40 | Plant response rating, Foxtail, Giant [12, 24]: 90 | Foxtail, Giant plant response rating (0 to 100 scale, 0 is no effect, 100 is complete control) ([12]; Preemergence): 90 | Plant response rating, Ryegrass, Italian [13, 24]: 70 | Ryegrass, Italian plant response rating (0 to 100 scale, 0 is no effect, 100 is complete control) ([13]; Preemergence): 70 | Plant response rating, Barnyardgrass [14, 24]: 90 | Barnyardgrass plant response rating (0 to 100 scale, 0 is no effect, 100 is complete control) ([14]; Preemergence): 90 | Plant response rating, Kochia (Kochia (Kochia scoparia) [15]; [24]): 60 | Kochia plant response rating (0 to 100 scale, 0 is no effect, 100 is complete control) (Kochia (Kochia scoparia) [15]; Preemergence): 80 | Plant response rating, Sedge, Umbrella ([16]; 250 g ai/ha): 0 | Plant response rating, Rice (rice (Oryra sativa); 250 g ai/ha): 10 | Plant response rating, Barnyardgrass ([17]; 250 g ai/ha): 65 | Plant response rating, Ducksalad ([18]; 250 g ai/ha): 100
